# Reference: the supplement of paper PMC10657565
# ± gives the uncertainty stated by the source.
# What was measured:
# Experiment in all cases: relative cell viability vs DMSO control (% of DMSO control); higher = less growth inhibition (higher viability)
# Details in all cases: treatment time: 72 h
# BT-474 = tested on: BT-474
# Method: (§1)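 Breast cancer cell lines (BT-474, HCC1806, SUM-159, SKBR-3) were seeded in triplicate in 96-well plates and treated 24 h after seeding with kinase inhibitors at 8 doses (3 nM to 30 uM). After 72 h, viability was read by CellTiter-Glo luminescence. Values were averaged over replicates and normalised to DMSO-only (0.1%) controls on each plate to give relative viability (% of DMSO).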
# HCC1806 = tested on: HCC1806
# Method: as §1
# SKBR3 = tested on: SKBR3
# Method: as §1
# SUM159 = tested on: SUM159
# Method: as §1
Compound,relative cell viability (BT-474; 0.003 µM),relative cell viability (BT-474; 0.01 µM),relative cell viability (BT-474; 0.03 µM),relative cell viability (BT-474; 0.1 µM),relative cell viability (BT-474; 0.3 µM),relative cell viability (BT-474; 1 µM),relative cell viability (BT-474; 3 µM),relative cell viability (BT-474; 30 µM),relative cell viability (HCC1806; 0.003 µM),relative cell viability (HCC1806; 0.01 µM),relative cell viability (HCC1806; 0.03 µM),relative cell viability (HCC1806; 0.1 µM),relative cell viability (HCC1806; 0.3 µM),relative cell viability (HCC1806; 1 µM),relative cell viability (HCC1806; 3 µM),relative cell viability (HCC1806; 30 µM),relative cell viability (SKBR3; 0.003 µM),relative cell viability (SKBR3; 0.01 µM),relative cell viability (SKBR3; 0.03 µM),relative cell viability (SKBR3; 0.1 µM),relative cell viability (SKBR3; 0.3 µM),relative cell viability (SKBR3; 1 µM),relative cell viability (SKBR3; 3 µM),relative cell viability (SKBR3; 30 µM),relative cell viability (SUM159; 0.003 µM),relative cell viability (SUM159; 0.01 µM),relative cell viability (SUM159; 0.03 µM),relative cell viability (SUM159; 0.1 µM),relative cell viability (SUM159; 0.3 µM),relative cell viability (SUM159; 1 µM),relative cell viability (SUM159; 3 µM),relative cell viability (SUM159; 30 µM)
COCCN1CCN(Cc2ccc(-c3n[nH]c4c3C(=O)c3c(NC(=O)NN5CCOCC5)cccc3-4)cc2)CC1,97.7 ± 4.1,86 ± 3.1,66.7 ± 7,64.5 ± 6.1,69.8 ± 8.4,70.8 ± 15,75.2 ± 7.9,11.2 ± 0.36,96.5 ± 1.7,83.3 ± 2.7,42.8 ± 16,11.7 ± 1.4,9.5 ± 1.1,9.2 ± 0.52,9.82 ± 0.46,2.82 ± 1.3,84.2 ± 3.5,71 ± 7.2,50 ± 7,18.1 ± 8.7,8.06 ± 0.7,7.43 ± 0.26,5.73 ± 0.075,0.827 ± 0.17,97.1 ± 6.1,60.4 ± 30,14.3 ± 16,7.11 ± 1,8.54 ± 0.38,9.97 ± 0.5,7.7 ± 0.38,0.538 ± 0.063
COC(=O)[C@@]1(O)C[C@H]2O[C@]1(C)n1c3ccccc3c3c4c(c5c6ccccc6n2c5c31)C(=O)NC4 [K-252a],113 ± 7.6,106 ± 6.3,99.6 ± 7.7,91.6 ± 6.8,81.3 ± 4.5,58.9 ± 7.6,21.3 ± 4.6,1.44 ± 0.18,91.4 ± 5.5,81.8 ± 5.3,75.8 ± 6.2,62.3 ± 13,26.1 ± 8.3,13 ± 1.5,5.96 ± 2.1,0.762 ± 0.15,92.4 ± 4.2,90.4 ± 2,87.8 ± 4.2,81.8 ± 3.8,69.2 ± 4.8,54.3 ± 1.9,40 ± 2.8,1.88 ± 0.54,68.7 ± 6.9,63.8 ± 1.2,72.2 ± 3,34.7 ± 9.7,12.9 ± 2.6,6.47 ± 1.4,4.82 ± 0.85,2.12 ± 0.57
CC(C)c1cc(CNc2nc(Nc3cc(C4CC4)[nH]n3)cc(N3CCN(C)CC3)n2)on1 [XL-228],–,–,–,–,–,–,–,–,–,–,–,–,–,–,–,–,103 ± 1.4,101 ± 2.3,101 ± 7.3,100 ± 6.3,115 ± 6.3,117 ± 3.9,52.2 ± 6.2,6.72 ± 0.86,74.7 ± 5.2,61.4 ± 1.7,54.32 ± 0.48,36.5 ± 1.4,26.8 ± 1.6,11 ± 0.61,6.45 ± 0.28,10.8 ± 0.58
